Reference: patent US5681821A, “Fluorescent 1-peptidylaminoalkanephosphonate derivatives” (Georgia Tech Research Corp., priority 1994, dated 1997)

What was measured:
chymotrypsin = chymotrypsin (Bos taurus, UniProt P00766); assay: Inactivation of chymotrypsin, incubation method; type: biochemical, bovine; conditions: for kobsd /(I) Chymotrypsin: 0.1 M Hepes, 0.5 M NaCl, pH 7.5, 5-10% Me2SO, 25° C., NI = no inhibition after 40 min of incubation
Method: (§1) Inactivation rates of serine proteases by fluorescent peptidylphosphonates were measured by the incubation method. In each case the inactivation experiment was preceded by an enzyme assay in which the hydrolysis of peptide p-nitroanilide substrates, catalyzed by chymotrypsin, PPE, HLE, and trypsin was measured in 0.1M Hepes and 0.5M NaCl (0.01M CaCl2 for trypsin), pH 7.5 buffer containing 5-10% Me2 SO at 25° C. Stock solutions of substrates were prepared in Me2 SO (20 mM) and stored at -20° C. Final substrate concentrations were 0.24 mM. Chymotrypsin activity was assayed with Suc-Val-Pro-Phe-NA. PPE was assayed with Suc-Ala-Ala-Ala-NA. HLE was assayed with MeO-Suc-Ala-Ala-Pro-Val-NA and trypsin was assayed with Z-Arg-NA. The initial rates of hydrolysis were measured at 410 nm (ε410 =8800 M^-1 cm^-1) on a Beckman 35 spectrophotometer after 25-50 μL of an enzyme stock solution was added to a cuvette containing 2.0 mL of buffer and 25 μL of substrate.
(§2) Each inhibition reaction was initiated by adding a 50 μL aliquot of inhibitor (100-5000 μM in Me2 SO) to 0.5 mL of a 0.1M Hepes, 0.5M NaCl (0.01M CaCl2 for trypsin), pH 7.5 buffer containing 50 μL of a stock enzyme solution at 25° C. The enzyme stock solutions were 20 μM chymotrypsin, trypsin, and PPE in 1 mM HCl (pH 3), and 0.4-4 μM HLE in 0.25M NaAc and 1M NaCl at pH 5.5. All the enzyme stock solutions were stored at -20° C. prior to use. Aliquots (25 μL) were withdrawn at various intervals and the residual enzymatic activity was measured spectrophotometrically as described above. Pseudo first-order inactivation rate constants (kobsd) were obtained from plots of ln vt /vo vs time and had correlation coefficients greater than 0.98. Each kobsd was calculated from 5-10 activity determinations which extended to 2-3 half lives. Control experiments were carried out in the same way as described above except Me2 SO was added in place of the inhibitor solution in Me2 SO. […] These initial rates were used as vo in the calculation of the inhibition rate constants.

[1] = target: T1, porcine pancreatic elastase (PPE) (Sus scrofa, UniProt P00772); assay: Inactivation of PPE, incubation method; type: biochemical; conditions: 0.1 M Hepes, 0.5 M NaCl, pH 7.5, 5-10% Me2SO, 25° C.; NI = no inhibition after 40 min of incubation
T1 construct: purchased United States Biochemical Corp., Cleveland, Ohio
Method: as §1, §2

[2] = target: T2, human leukocyte elastase (HLE) (Homo sapiens, UniProt P08246); assay: Inactivation of HLE, incubation method; type: biochemical; conditions: 0.1 M Hepes, 0.5 M NaCl, pH 7.5, 5-10% Me2SO, 25° C.; NI = no inhibition after 40 min of incubation
T2 construct: purchased Athens Research and Technology, Inc., Athens, Ga
T2 sequence (P08246 30-267): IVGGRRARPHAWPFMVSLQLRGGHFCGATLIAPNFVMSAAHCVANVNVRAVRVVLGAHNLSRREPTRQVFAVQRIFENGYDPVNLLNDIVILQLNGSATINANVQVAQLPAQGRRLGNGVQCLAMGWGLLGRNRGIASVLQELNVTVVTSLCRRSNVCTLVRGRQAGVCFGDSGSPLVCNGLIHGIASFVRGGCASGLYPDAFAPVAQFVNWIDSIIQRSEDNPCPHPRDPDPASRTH
Method: as §1, §2

RNK-16 cells = assay: Cell labeling and confocal imaging of NK line RNK-16; type: cell-based; conditions: live RNK-16 cells, 0.1 mM inhibitor, 30 minutes, 37° C., confocal microscopy
Method: Cell Labeling and Imaging. Cells of the NK line RNK-16 were labeled as live cells, washed, treated with methanol as a fixative and permeabilizing agent, and then examined by confocal microscopy. The cells were treated at 1×10^7 cells/mL in RPMI 1640 culture media (Sigma Chemical Co., St. Louis, Mo.) containing 10 mM Hepes with 0.1 mM FTC-Aca-Ala-Ala-Met^P (OPh)2 for 30 minutes at 37° C. Control cells were treated with the same volume of DMSO required to deliver the inhibitor (typically 1% final concentration). Cells were then washed several times with phosphate buffered saline (PBS) to remove excess inhibitor. They were suspended overnight in cold 80% methanol to permeabilize the membrane. The cells were washed free of MeOH into PBS and fixed onto poly-L-lysine (Sigma) coated microscope slides using 3% paraformaldehyde. Fixed slides were washed in PBS, coated with Vectashield (Vector Laboratories, Inc., Burlingame, Ca.) to prevent fluorescence fading and topped with a coverslip. Fluorescent laser scanning confocal microscopy was done with a Bio-Rad MRC 600 confocal system utilizing a Zeiss Axiophot microscope and equipped with a mixed-gas argon/krypton ion laser using 488 nm excitation for fluorescein.

RNK-16 chymase [3] = assay: Inactivation of RNK-16 granule chymase activity; type: biochemical; conditions: granule protease activity
Asp-ase granule protease = target: T3, Asp-ase granule protease (Rattus norvegicus, UniProt P18291); assay: Inactivation of RNK-16 granule Asp-ase activity; type: biochemical; conditions: RNK-16 granule protease activity
T3 construct: endogenous in cells; host or cells: RNK-16
T3 sequence (P18291 21-248): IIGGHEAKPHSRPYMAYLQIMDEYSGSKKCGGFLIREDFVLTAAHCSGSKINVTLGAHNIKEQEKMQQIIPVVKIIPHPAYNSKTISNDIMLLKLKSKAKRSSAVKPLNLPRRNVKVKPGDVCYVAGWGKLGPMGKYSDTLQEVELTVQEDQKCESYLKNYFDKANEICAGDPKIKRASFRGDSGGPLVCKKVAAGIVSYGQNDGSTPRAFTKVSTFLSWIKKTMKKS

[4] = test system: tryptase granule protease; assay: Inactivation of RNK-16 granule tryptase activity; type: biochemical; conditions: RNK-16 granule protease activity
RNK-16 chymase [5] = conditions: previous approach, comparison; cited from earlier work
[6] = test system: tryptase granule protease; conditions: previous approach, comparison; cited from earlier work

T1 sequence (P00772 27-266): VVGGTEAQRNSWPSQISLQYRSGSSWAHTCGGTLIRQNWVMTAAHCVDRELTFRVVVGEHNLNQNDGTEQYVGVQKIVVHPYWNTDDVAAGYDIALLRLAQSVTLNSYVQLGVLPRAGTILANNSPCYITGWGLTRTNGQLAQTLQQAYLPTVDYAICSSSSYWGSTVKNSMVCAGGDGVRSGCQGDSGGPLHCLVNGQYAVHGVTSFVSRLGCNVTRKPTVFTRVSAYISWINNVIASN

Molecule | kobsd /(I) Chymotrypsin (chymotrypsin) [M⁻¹ s⁻¹] | kobsd /(I) PPE [1] [M⁻¹ s⁻¹] | kobsd /(I) HLE [2] [M⁻¹ s⁻¹] | further results
Diphenyl 1-(6-(4(or 2)(9-(2,3,6,7,12,13,16,17-octahydro-1H,5H,11H,15H-xantheno(2,3,4-ij:5,6,7- i'j')diquinolizinyl-18-ium))3(or 5)sulfo-1-phenylsulfonamido)caproylphenylalanylleucylamino)-2-phenylethanephosphonate, Hydroxide, Inner Salt [Compound 4] | 15 | 11 | 96 | –
CC(C)C[C@H](NC(=O)[C@H](Cc1ccccc1)NC(=O)OCc1ccccc1)C(=O)NC(Cc1ccccc1)P(=O)(Oc1ccccc1)Oc1ccccc1 (stereo partly drawn) [Compound 7, Z-Phe-Leu-Phe^P (OPh)2, reference compound] | 110 | – | 27 | –
CC(NC(=O)[C@H](C)NC(=O)[C@H](C)NC(=O)OCc1ccccc1)P(=O)(Oc1ccccc1)Oc1ccccc1 (stereo partly drawn) [Compound 6, Z-Ala-Ala-Ala^P (OPh)2, reference compound] | – | 30 | – | –
CC(NC(=O)[C@H](C)NC(=O)[C@H](C)NC(=O)CCCCCNC(=S)Nc1ccc2c(c1)C(=O)OC21c2ccc(O)cc2Oc2cc(O)ccc21)P(=O)(Oc1ccccc1)Oc1ccccc1 (stereo partly drawn) [Compound 2, Diphenyl 1-(6-(5-Fluoresceinylthiocarbamoylamino)caproylalanylalanylamino) ethanephosphonate] | – | 22 | – | –
CC(C)C[C@H](NC(=O)[C@H](Cc1ccccc1)NC(=O)CCCCCNC(=S)Nc1ccc2c(c1)C(=O)OC21c2ccc(O)cc2Oc2cc(O)ccc21)C(=O)NC(Cc1ccccc1)P(=O)(Oc1ccccc1)Oc1ccccc1 (stereo partly drawn) [Compound 3, Diphenyl 1-(6-(5-Fluoresceinylthiocarbamoylamino)caproylphenylalanylleucylamino)-2-phenylethanephosphonate] | – | 16 | – | times faster inhibition of chymotrypsin than of HLE (chymotrypsin; ratio of kobsd/(I) chymotrypsin to HLE): 600
CSCCC(NC(=O)[C@H](C)NC(=O)[C@H](C)NC(=O)OC(C)(C)C)P(=O)(Oc1ccccc1)Oc1ccccc1 (stereo partly drawn) [Compound 5, Boc-Ala-Ala-Met^P (OPh)2, reference compound] | 3 | 3 | 2 | –
CSCCC(NC(=O)[C@H](C)NC(=O)[C@H](C)NC(=O)CCCCCNC(=S)Nc1ccc2c(c1)C(=O)OC21c2ccc(O)cc2Oc2cc(O)ccc21)P(=O)(Oc1ccccc1)Oc1ccccc1 (stereo partly drawn) [Compound 1, Diphenyl 1-(6-(5-Fluoresceinylthiocarbamoylamino)caproylalanylalanylamino)-3-(methylthio)propanephosphonate] | 190 | 13 | 22 | fluorescent labeling of cells (RNK-16 cells): reacted with distinct, granule-like regions; inactivation of RNK-16 chymase (RNK-16 chymase [3]): inactivated; inactivation of Asp-ase granule protease activity (Asp-ase granule protease): little; inactivation of tryptase granule protease activity [4]: little
soybean trypsin inhibitor: reversible serine protease inhibitor, macromolecular inhibitor (protein, UniProt P01070 25-205, looked up) Trypsin inhibitor A: DFVLDNEGNPLENGGTYYILSDITAFGGIRAAPTGNERCPLTVVQSRNELDKGIGTIISSPYRIRFIAEGHPLSLKFDSFAVIMLCVGIPTEWSVVEDLPEGPAVKIGENKDAMDGWFRLERVSDDEFNNYKLVFCPQQAEDDKCGDIGISIDHDDGTRRLVVSKNKPLVVQFQKLDKESL | – | – | – | inactivation of chymases of cytotoxic lymphocytes (RNK-16 chymase [5]): inactivated; inactivation of tryptases of cytotoxic lymphocytes [6]: inactivated
